Results published in patent publication US12172990B2 (Constellation Pharmaceuticals, Inc., priority 2018, dated 2024).

Legend:
[1] = target: human TREX2 (residues M44-A279) (Homo sapiens (Human), UniProt Q9BQ50); assay: TREX2 Biochemical Assay (fluorescence assay measuring degradation of dsDNA substrate); details: 2.5 nM TREX2, 60 nM dsDNA substrate, 25 minutes at room temperature
Experimental: Degradation of the dsDNA liberates free fluorophore to produce a fluorescent signal. Specifically, 7.5 μL of N-terminally His-Tev tagged human TREX2 (residues M44-A279, expressed in E. coli and purified in house) in reaction buffer (50 mM Tris (pH 7.4), 150 mM NaCl, 2 mM DTT, 0.1 mg/mL BSA, 0.01% (v/v) Tween-20 and 100 mM MgCl2) was added to a 384-well Black ProxiPlate Plus (Perkin Elmer) which already contained compound (150 nL) at varying concentrations as a 10 point dose-response in DMSO. To this was added 7.5 μL of dsDNA substrate (Strand A: 5′ TEX615/GCT AGG CAG 3′; Strand B: 5′ CTG CCT AGC/IAbRQSp (IDT)) in reaction buffer. Final concentrations were 2.5 nM TREX2, 60 nM dsDNA substrate in reaction buffer with 1.0% DMSO (v/v). After 25 minutes at room temperature, reactions were quenched by the addition of 5 μL of stop buffer (same as reaction buffer plus 200 mM EDTA). Final concentrations in the quenched reaction mixture were […] TREX2, 45 nM DNA and 50 mM EDTA in a volume of 20 μL. After a 5-minute incubation at room temperature, plates were read in a laser sourced Envision (Perkin-Elmer), measuring fluorescence at 615 nm following excitation w/570 nm light. IC50 values were calculated by comparing the measured fluorescence at 615 nm ratio relative to control wells pre-quenched w/stop buffer (100% inhibition) and no inhibitor (0% inhibition) controls as using non-linear least square four parameter fits and either Genedata or GraphPad Prism (GraphPad Software, Inc.).

[2] = target: full length human TREX1 (Homo sapiens (Human), UniProt Q9NSU2); assay: TREX1 Biochemical Assay (fluorescence assay measuring degradation of dsDNA substrate); details: 150 pM TREX1, 60 nM dsDNA substrate, 25 minutes at room temperature
full length human TREX1, sequence (Q9NSU2 whole entry): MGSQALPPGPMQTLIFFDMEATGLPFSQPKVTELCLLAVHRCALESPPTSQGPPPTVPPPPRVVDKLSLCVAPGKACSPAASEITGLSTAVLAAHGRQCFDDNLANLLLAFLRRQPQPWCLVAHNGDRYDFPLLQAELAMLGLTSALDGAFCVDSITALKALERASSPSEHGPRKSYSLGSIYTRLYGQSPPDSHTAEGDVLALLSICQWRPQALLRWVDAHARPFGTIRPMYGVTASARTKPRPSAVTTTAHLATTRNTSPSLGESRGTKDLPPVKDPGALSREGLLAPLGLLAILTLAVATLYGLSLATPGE
Experimental: Degradation of the dsDNA liberates free fluorophore to produce a fluorescent signal. Specifically, 7.5 μL of N-terminally His-Tev tagged full length human TREX1 (expressed in E. coli and purified in house) in reaction buffer (50 mM Tris (pH 7.4), 150 mM NaCl, 2 mM DTT, 0.1 mg/mL BSA, 0.01% (v/v) Tween-20 and 100 mM MgCl2 were added to a 384-well Black ProxiPlate Plus (Perkin Elmer) which already contained compound (150 nL) at varying concentrations as a 10 point dose-response in DMSO. To this was added 7.5 μL of dsDNA substrate (Strand A: 5′ TEX615/GCT AGG CAG 3′; Strand B: 5′ CTG CCT AGC/IAbRQSp (Integrated DNA Technologies)) in reaction buffer. Final concentrations were 150 pM TREX1, 60 nM dsDNA substrate in reaction buffer with 1.0% DMSO (v/v). After 25 minutes at room temperature, reactions were quenched by the addition of 5 μL of stop buffer (same as reaction buffer plus 200 mM EDTA). Final concentrations in the quenched reaction were 112.5 pM TREX1, 45 nM DNA and 50 mM EDTA in a volume of 20 μL. After a 5-minute incubation at room temperature, plates were read in a laser sourced Envision (Perkin-Elmer), measuring fluorescence at 615 nm following excitation w/570 nm light. IC50 values were calculated by comparing the measured fluorescence at 615 nm ratio relative to control wells pre-quenched w/stop buffer (100% inhibition) and no inhibitor (0% inhibition) controls as using non-linear least square four parameter fits and either Genedata or GraphPad Prism (GraphPad Software, Inc.).

human TREX2 (residues M44-A279), sequence (Q9BQ50 whole entry, the tested form may be a part): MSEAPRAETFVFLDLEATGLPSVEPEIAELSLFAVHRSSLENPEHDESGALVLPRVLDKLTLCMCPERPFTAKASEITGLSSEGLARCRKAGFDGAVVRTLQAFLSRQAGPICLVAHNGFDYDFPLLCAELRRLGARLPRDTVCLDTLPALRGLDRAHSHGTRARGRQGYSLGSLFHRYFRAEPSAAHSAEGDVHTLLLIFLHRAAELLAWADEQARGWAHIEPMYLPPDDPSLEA

Structure (SMILES) | IC50 [1] | IC50 [2]
Cn1c(C2(Cc3ccccc3)CCCN(C(=O)OC(C)(C)C)C2)nc(C(=O)Nc2cnoc2)c(O)c1=O (stereo not shown) [Example 50, tert-butyl 3-benzyl-3-(5-hydroxy-4-(isoxazol-4-ylcarbamoyl)-1-methyl-6-oxo-1,6-dihydropyrimidin-2-yl)piperidine-1-carboxylate] | 10 to 100 µM | 100 to 1000 nM
Cc1cc(C(=O)O)cc(-c2nc(C(=O)Nc3cnoc3)c(O)c(=O)n2C)c1 [Example 51, 3-(5-hydroxy-4-(isoxazol-4-ylcarbamoyl)-1-methyl-6-oxo-1,6-dihydropyrimidin-2-yl)-5-methylbenzoic acid] | 1 to 10 µM | 100 to 1000 nM
Cn1c(C2(COCc3ccccc3)CCCN(C(=O)OC(C)(C)C)C2)nc(C(=O)Nc2cnoc2)c(O)c1=O (stereo not shown) [Example 52, tert-butyl 3-((benzyloxy)methyl)-3-(5-hydroxy-4-(isoxazol-4-ylcarbamoyl)-1-methyl-6-oxo-1,6-dihydropyrimidin-2-yl)piperidine-1-carboxylate] | 1 to 10 µM | 100 to 1000 nM
COC(=O)c1cc(C)cc(-c2nc(C(=O)Nc3cnoc3)c(O)c(=O)n2C)c1 [Example 53, methyl 3-(5-hydroxy-4-(isoxazol-4-ylcarbamoyl)-1-methyl-6-oxo-1,6-dihydropyrimidin-2-yl)-5-methylbenzoate] | 1 to 10 µM | 100 to 1000 nM
Cc1cc(C(=O)NC2CCN(C)CC2)cc(-c2nc(C(=O)Nc3cnoc3)c(O)c(=O)n2C)c1 [Example 54, 5-hydroxy-N-(isoxazol-4-yl)-1-methyl-2-(3-methyl-5-((1-methylpiperidin-4-yl)carbamoyl)phenyl)-6-oxo-1,6-dihydropyrimidine-4-carboxamide] | 10 to 100 µM | 100 to 1000 nM
CNC(=O)c1cc(C)cc(-c2nc(C(=O)Nc3cnoc3)c(O)c(=O)n2C)c1 [Example 55, 5-hydroxy-N-(isoxazol-4-yl)-1-methyl-2-(3-methyl-5-(methylcarbamoyl)phenyl)-6-oxo-1,6-dihydropyrimidine-4-carboxamide] | 1 to 10 µM | < 100 nM
Cn1c(C2CCCN(C(=O)C3CCC(=O)NC3)C2)nc(C(=O)Nc2cnoc2)c(O)c1=O (stereo not shown) [Example 56, 5-hydroxy-N-(isoxazol-4-yl)-1-methyl-6-oxo-2-(1-(6-oxopiperidine-3-carbonyl)piperidin-3-yl)-1,6-dihydropyrimidine-4-carboxamide] | 10 to 100 µM | 100 to 1000 nM
Cn1c(C2CCCN(S(=O)(=O)c3ccccc3)C2)nc(C(=O)Nc2cnoc2)c(O)c1=O (stereo not shown) [Example 57, 5-hydroxy-N-(isoxazol-4-yl)-1-methyl-6-oxo-2-(1-(phenylsulfonyl)piperidin-3-yl)-1,6-dihydropyrimidine-4-carboxamide] | 10 to 100 µM | 100 to 1000 nM
Cn1c(C2CCCN(C(=O)c3cncnc3)C2)nc(C(=O)Nc2cnoc2)c(O)c1=O (stereo not shown) [Example 58, 5-hydroxy-N-(isoxazol-4-yl)-1-methyl-6-oxo-2-(1-(pyrimidine-5-carbonyl)piperidin-3-yl)-1,6-dihydropyrimidine-4-carboxamide] | 1 to 10 µM | 100 to 1000 nM
Cn1c(C2CCCN(C(=O)c3ccc(Cl)cc3)C2)nc(C(=O)Nc2cnoc2)c(O)c1=O (stereo not shown) [Example 59, 2-(1-(4-chlorobenzoyl)piperidin-3-yl)-5-hydroxy-N-(isoxazol-4-yl)-1-methyl-6-oxo-1,6-dihydropyrimidine-4-carboxamide] | 1 to 10 µM | 100 to 1000 nM
CN(C)CCCC(=O)N1CCCC(c2nc(C(=O)Nc3cnoc3)c(O)c(=O)n2C)C1 (stereo not shown) [Example 60, 2-(1-(4-(dimethylamino)butanoyl)piperidin-3-yl)-5-hydroxy-N-(isoxazol-4-yl)-1-methyl-6-oxo-1,6-dihydropyrimidine-4-carboxamide] | 10 to 100 µM | 1000 to 10000 nM
Cn1c(C2CCCN(C(=O)Cc3ccccc3)C2)nc(C(=O)Nc2cnoc2)c(O)c1=O (stereo not shown) [Example 61, 5-hydroxy-N-(isoxazol-4-yl)-1-methyl-6-oxo-2-(1-(2-phenylacetyl)piperidin-3-yl)-1,6-dihydropyrimidine-4-carboxamide] | 1 to 10 µM | 100 to 1000 nM
Cn1c(C2CCCN(C(=O)c3cccnc3)C2)nc(C(=O)Nc2cnoc2)c(O)c1=O (stereo not shown) [Example 62, 5-hydroxy-N-(isoxazol-4-yl)-1-methyl-2-(1-nicotinoylpiperidin-3-yl)-6-oxo-1,6-dihydropyrimidine-4-carboxamide] | 1 to 10 µM | 100 to 1000 nM
Cn1c(C2CCCN(C(=O)c3ccncc3)C2)nc(C(=O)Nc2cnoc2)c(O)c1=O (stereo not shown) [Example 63, 5-hydroxy-2-(1-isonicotinoylpiperidin-3-yl)-N-(isoxazol-4-yl)-1-methyl-6-oxo-1,6-dihydropyrimidine-4-carboxamide] | 1 to 10 µM | 100 to 1000 nM
CC(=O)N1CCCC(c2nc(C(=O)Nc3cnoc3)c(O)c(=O)n2C)C1 (stereo not shown) [Example 64, 2-(1-acetylpiperidin-3-yl)-5-hydroxy-N-(isoxazol-4-yl)-1-methyl-6-oxo-1,6-dihydropyrimidine-4-carboxamide] | 10 to 100 µM | 100 to 1000 nM
Cn1c(C2CCCN(C(=O)Nc3ccccc3)C2)nc(C(=O)Nc2cnoc2)c(O)c1=O (stereo not shown) [Example 65, 5-hydroxy-N-(isoxazol-4-yl)-1-methyl-6-oxo-2-(1-(phenylcarbamoyl)piperidin-3-yl)-1,6-dihydropyrimidine-4-carboxamide] | 1 to 10 µM | 100 to 1000 nM
Cn1c(-c2ccccc2-c2cccnc2)nc(C(=O)Nc2cnoc2)c(O)c1=O [Example 66, 5-hydroxy-N-(isoxazol-4-yl)-1-methyl-6-oxo-2-(2-(pyridin-3-yl)phenyl)-1,6-dihydropyrimidine-4-carboxamide] | 10 to 100 µM | 100 to 1000 nM
Cn1c(-c2ccccc2-c2ccncc2)nc(C(=O)Nc2cnoc2)c(O)c1=O [Example 67, 5-hydroxy-N-(isoxazol-4-yl)-1-methyl-6-oxo-2-(2-(pyridin-4-yl)phenyl)-1,6-dihydropyrimidine-4-carboxamide] | 10 to 100 µM | 1000 to 10000 nM
Cn1c(-c2cc(Br)ccc2OCCO)nc(C(=O)Nc2cnoc2)c(O)c1=O [Example 70, 2-(5-bromo-2-(2-hydroxyethoxy)phenyl)-5-hydroxy-N-(isoxazol-4-yl)-1-methyl-6-oxo-1,6-dihydropyrimidine-4-carboxamide] | 1 to 10 µM | < 100 nM
Cn1nc(CCO)c(-c2nc(C(=O)Nc3cnoc3)c(O)c(=O)n2C)n1 [Example 73, 5-hydroxy-2-(5-(2-hydroxyethyl)-2-methyl-2H-1,2,3-triazol-4-yl)-N-(isoxazol-4-yl)-1-methyl-6-oxo-1,6-dihydropyrimidine-4-carboxamide] | 10 to 100 µM | 100 to 1000 nM
Cn1nnc(-c2nc(C(=O)Nc3cnoc3)c(O)c(=O)n2C)c1CCO [Example 74, 5-hydroxy-2-(5-(2-hydroxyethyl)-1-methyl-1H-1,2,3-triazol-4-yl)-N-(isoxazol-4-yl)-1-methyl-6-oxo-1,6-dihydropyrimidine-4-carboxamide] | 10 to 100 µM | 1000 to 10000 nM
Cn1c(-c2ccccc2NCCCO)nc(C(=O)Nc2cnoc2)c(O)c1=O [Example 75, 5-hydroxy-2-(2-((3-hydroxypropyl)amino)phenyl)-N-(isoxazol-4-yl)-1-methyl-6-oxo-1,6-dihydropyrimidine-4-carboxamide] | > 100 µM | > 10000 nM
Cn1c(-c2ccccc2N[C@H]2C[C@@H](O)C2)nc(C(=O)Nc2cnoc2)c(O)c1=O [Example 76, 5-hydroxy-2-(2-(((1s,3s)-3-hydroxycyclobutyl)amino)phenyl)-N-(isoxazol-4-yl)-1-methyl-6-oxo-1,6-dihydropyrimidine-4-carboxamide] | 10 to 100 µM | 100 to 1000 nM
